Columns and labels:
[1] = Stability of stannous ions over 35 days at 60° C. (FIG. 3)
Method: Stability of stannous ions is assessed over a period of 35 days.

[2] = in water; cited from earlier work
[3] = aqueous Sn (II) with the named additive, 35 days
Method: Stability of Sn (II) in aqueous solutions, and the ability of various additives to affect this stability, is assessed.

SMILES: O=P([O-])([O-])OP(=O)([O-])[O-].[Na+].[Na+].[Na+].[Na+] [TSPP, tetrasodium pyrophosphate]
- oxidative stability of stannous ([1]; SnF2 in the presence of the named additive): no oxidative stability is observed

SMILES: O.O.O.O.O=P([O-])([O-])[O-].O=P([O-])([O-])[O-].[Zn+2].[Zn+2].[Zn+2] [Zinc phosphate, zinc phosphate]
- Ksp [2]: ~10^−35
- prevention of the stannous-to-stannic oxidation [3]: positive impact

SMILES: O=P(O)(O)O [phosphoric acid]
- stannous oxidized ([1]; stannous fluoride in the presence of the named additive): 8-9%

SMILES: [F][Sn][F] [stannous fluoride, reference compound]
- stannous oxidized ([1]; stannous fluoride alone): ~80%
